Read-outs that look alike come from different tables or passages of the source.
Tests used:
EP4 receptor = EP4 receptor (Homo sapiens, UniProt P35408); assay: Schild regression analysis for EP4 receptor; assay type: cell-based; settings: for Kb: read-out: KB (μM) EP4, from Schild regression analysis
Excerpt: (§1) Information on the modality of antagonism can be obtained by performing Schild regression analysis characterized by: log (dr−1)=log XB−log KB. In the equation, dose ratio (dr)=fold shift in EC50, XB=[antagonist], KB=equilibrium dissociation constant for the antagonist-receptor complex. […] Thus, a lower KB value indicates a higher inhibitory potency.

in vitro = settings: rat
EP2 receptor = EP2 receptor (Homo sapiens, UniProt P43116); assay: Schild regression of PGE2-induced EP2 activation in C6G-EP2 cells; assay type: cell-based; set-up: expressed in transfected cells; host or cells: C6G-EP2 cells
Sequence of EP2 receptor (P43116 whole entry): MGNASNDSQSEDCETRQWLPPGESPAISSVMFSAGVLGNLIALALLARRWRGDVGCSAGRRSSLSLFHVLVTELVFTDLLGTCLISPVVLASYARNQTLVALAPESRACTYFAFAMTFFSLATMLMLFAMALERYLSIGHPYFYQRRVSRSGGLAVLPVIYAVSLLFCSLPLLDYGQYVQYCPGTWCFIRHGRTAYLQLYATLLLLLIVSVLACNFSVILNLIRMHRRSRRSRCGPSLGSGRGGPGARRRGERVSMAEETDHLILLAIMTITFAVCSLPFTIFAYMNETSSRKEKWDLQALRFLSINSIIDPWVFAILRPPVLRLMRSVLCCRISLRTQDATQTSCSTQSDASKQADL
Experimental: as §1
To perform the Schild regression, C6G-EP2 cells were incubated first with vehicle, 0.01, 0.1 or 1 μM of test compound for 5 minutes, then with increasing concentrations of PGE2 to activate the EP2 receptor.

C6G cells = assay: CellTiter-Glo luminescent cell viability assay (cytotoxicity)
[1] = C6G-EP2 cells, PGE2 as agonist, read-out: KB (nM) EP2, from Schild regression analysis
[2] = additional compounds tables, read-out: EP2 KB

Sequence of EP4 receptor (P35408 whole entry): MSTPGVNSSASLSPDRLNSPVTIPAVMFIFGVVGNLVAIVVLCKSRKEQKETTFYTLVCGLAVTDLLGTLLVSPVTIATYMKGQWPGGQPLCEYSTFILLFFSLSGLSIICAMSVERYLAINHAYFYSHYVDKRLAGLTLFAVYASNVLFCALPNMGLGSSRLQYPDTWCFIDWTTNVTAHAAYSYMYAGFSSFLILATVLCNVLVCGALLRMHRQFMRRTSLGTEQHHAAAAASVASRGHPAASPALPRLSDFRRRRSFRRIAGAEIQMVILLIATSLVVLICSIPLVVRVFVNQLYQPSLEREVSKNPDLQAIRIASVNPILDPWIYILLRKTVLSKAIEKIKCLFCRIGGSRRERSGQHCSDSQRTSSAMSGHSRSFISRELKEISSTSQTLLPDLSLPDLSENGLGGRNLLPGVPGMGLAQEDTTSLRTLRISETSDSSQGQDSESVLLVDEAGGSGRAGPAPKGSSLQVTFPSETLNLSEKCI

| Selective index, KB EP4/KB EP2 (EP4 receptor) | Kb (EP4 receptor) [µM] | Kb (EP2 receptor; [1]) [nM] | Kb (EP2 receptor; [2]) [nM] | Structure (SMILES) | CC50 at 48 h (in vitro; C6G cells) [µM] | Therapeutic index (in vitro), CC50/KB for EP2 (C6G cells) | further results |
| --- | --- | --- | --- | --- | --- | --- | --- |
| 39 | 13.7 | 348 | – | COc1cc(C=CC(=O)NCCn2c(C)nc3ccccc32)cc(OC)c1OC [1a, N-(2-(2-methyl-1H-benzo[d]imidazol-1-yl)ethyl)-3-(3,4,5-trimethoxyphenyl)acrylamide] | 360 | 1,030 | – |
| 14 | 13.3 | 947 | – | COc1ccc(C=CC(=O)NCCn2c(C)nc3ccccc32)cc1OC [1b, 3-(3,4-dimethoxyphenyl)-N-(2-(2-methyl-1H-benzo[d]imidazol-1-yl)ethyl)acrylamide] | 448 | 473 | – |
| 10 | 15.3 | 1490 | – | Cc1nc2ccccc2n1CCNC(=O)C=Cc1ccc2c(c1)OCO2 [1c, 3-(benzo[d][1,3]dioxol-5-yl)-N-(2-(2-methyl-1H-benzo[d]imidazol-1-yl)ethyl)acrylamide] | 325 | 219 | – |
| 6 | 13.9 | 2520 | – | COc1cc(C=CC(=O)NCCn2cnc3ccccc32)cc(OC)c1OC [1d, N-(2-(1H-benzo[d]imidazol-1-yl)ethyl)-3-(3,4,5-trimethoxyphenyl)acrylamide] | 311 | 123 | – |
| 77 | 1.7 | 22.2 | – | COc1ccc(C=CC(=O)NCCn2c(C)cc3cc(F)ccc32)cc1OC [1g, 3-(3,4-dimethoxyphenyl)-N-(2-(5-fluoro-2-methyl-1H-indol-1-yl)ethyl)acrylamide] | 264 | 11,900 | – |
| 381 | 22.4 | 58.8 | – | COc1ccc(/C=C/C(=O)NCCn2c(C(F)(F)F)cc3ccccc32)cc1OC [1i] | – | 3,550 | CC50 (C6G cells; read-out: CC50, half maximal cytotoxic concentration, C6G cells after 48 h incubation): 209 µM |
| 3 | 5.7 | 1860 | – | COc1cc(C=CC(=O)NCCCn2c(C)cc3ccccc32)cc(OC)c1OC [1j, N-(3-(2-methyl-1H-indol-1-yl)propyl)-3-(3,4,5-trimethoxyphenyl)acrylamide] | 182 | 98 | – |
| 90 | 16.6 | 185 | – | COc1cc(C=CC(=O)N(C)CCn2c(C)cc3ccccc32)cc(OC)c1OC [1k, N-methyl-N-(2-(2-methyl-1H-indol-1-yl)ethyl)-3-(3,4,5-trimethoxyphenyl)acrylamide] | 278 | 1,500 | – |
| – | 18.1 | – | – | COc1cc(CCC(=O)NCCn2c(C)cc3ccccc32)cc(OC)c1OC [1l, N-(2-(2-methyl-1H-indol-1-yl)ethyl)-3-(3,4,5-trimethoxyphenyl)propanamide] | 397 | – | – |
| 277 | 11.7 | 42.4 | – | COc1ccc(C=CC(=O)NCCn2c(C)cc3cc(F)ccc32)cc1 [1n, N-(2-(5-fluoro-2-methyl-1H-indol-1-yl)ethyl)-3-(4-methoxyphenyl)acrylamide] | 653 | 15,400 | – |
| 629 | 11.4 | 18.1 | – | Cc1cc2ccccc2n1CCNC(=O)C=Cc1ccc2c(c1)OCO2 [1o, 3-(benzo[d][1,3]dioxol-5-yl)-N-(2-(2-methyl-1H-indol-1-yl)ethyl)acrylamide] | 146 | 8,070 | – |
| 268 | 1.9 | 7.2 | – | CCOc1ccc(C=CC(=O)NCCn2c(C)cc3ccccc32)cc1OC [1p, 3-(4-ethoxy-3-methoxyphenyl)-N-(2-(2-methyl-1H-indol-1-yl)ethyl)acrylamide] | 517 | 71,800 | – |
| 367 | 30.2 | 82.4 | – | Cc1cc2ccccc2n1CCNC(=O)C=Cc1ccc(CC(C)C)cc1 [1q, 3-(4-isobutylphenyl)-N-(2-(2-methyl-1H-indol-1-yl)ethyl)acrylamide] | 199 | 2,420 | – |
| 2,800 | 10.6 | 3.8 | – | Cc1cc2ccccc2n1CCNC(=O)C=Cc1ccc(F)c(F)c1 [1r, 3-(3,4-difluorophenyl)-N-(2-(2-methyl-1H-indol-1-yl)ethyl)acrylamide] | 89 | 23,400 | – |
| 1,990 | 13.9 | 7 | – | Cc1cc2cc(F)ccc2n1CCNC(=O)C=Cc1ccc(F)c(F)c1 [1s, 3-(3,4-difluorophenyl)-N-(2-(5-fluoro-2-methyl-1H-indol-1-yl)ethyl)acrylamide] | 684 | 97,700 | – |
| – | – | 1.8 | – | CCOc1c(Br)cc(CCC(=O)NCCn2c(C)cc3ccccc32)cc1OC [1v] | – | – | Schild plot slope (EP2 receptor; C6G-EP2 cells, PGE2): 1.2; Modality of antagonism on EP2 receptor (EP2 receptor; Schild plots): competitive antagonism |

Second part, the compound before the results:

| Structure (SMILES) | Selective index, KB EP4/KB EP2 (EP4 receptor) | Kb (EP4 receptor) [µM] | Kb (EP2 receptor; [1]) [nM] | Kb (EP2 receptor; [2]) [nM] | CC50 at 48 h (in vitro; C6G cells) [µM] | Therapeutic index (in vitro), CC50/KB for EP2 (C6G cells) | further results |
| --- | --- | --- | --- | --- | --- | --- | --- |
| COc1ccc(C=CC(=O)NCCn2c(C)cc3ccccc32)cc1 [1m, 3-(4-methoxyphenyl)-N-(2-(2-methyl-1H-indol-1-yl)ethyl)acrylamide] | 484 | 8 | 16.5 | – | 3090 | 187,000 | – |
| Cc1cc(/C=C/C(=O)NCCn2c(C(F)(F)F)cc3ccccc32)cc(C)c1F [TG7-13] | – | – | – | 288 | – | – | – |
| COc1cc(C(=O)NCCn2c(C)cc3ccccc32)cc(OC)c1OC [TG7-112-1] | – | – | – | > 1000 | – | – | – |
| Cc1cc2ccccc2n1CCNC(=O)c1nc2cc(F)ccc2[nH]1 [TG7-118] | – | – | – | 128 | – | – | – |
| Cc1cc2ccccc2n1CCNC(=O)C1CCC(=O)N1 (stereo not shown) [TG7-120] | – | – | – | > 1000 | – | – | – |
| COc1cc(/C=C/C(=O)NCCc2c(C)oc3ccccc23)cc(OC)c1OC [TG7-122] | – | – | – | 217 | – | – | – |
| Cc1cc2ccccc2n1CCNC(=O)c1c[nH]c2c(F)cccc2c1=O [TG7-131] | – | – | – | 630 | – | – | – |
| Cc1cc2ccccc2n1CCNC(=O)c1ccc(C(N)=O)cc1 [TG7-140] | – | – | – | 150 | – | – | – |
| Cc1cc2ccccc2n1CCNC(=O)c1ccc(N2CCN(C)CC2)c(F)c1 [TG7-141, 3-fluoro-N-(2-(2-methyl-1H-indol-1-yl)ethyl)-4-(4-methylpiperazin-1-yl)benzamide] | – | – | – | 51.1 | – | – | – |
| Cc1cc2ccccc2n1CCNC(=O)c1ccc(N(C)C)cc1 [TG7-142, 4-(dimethylamino)-N-(2-(2-methyl-1H-indol-1-yl)ethyl)benzamide] | – | – | – | 10.4 | – | – | – |
| Cc1cc2ccccc2n1CCNC(=O)c1ccc(N)cc1 [TG7-143] | – | – | – | 207 | – | – | – |
| CC(=O)Nc1ccc(C(=O)NCCc2c(C)[nH]c3ccccc23)cc1 [TG7-146] | – | – | – | 138 | – | – | – |
| Cc1cc2ccccc2n1CCNC(=O)c1ccc(C#N)cc1 [TG7-147] | – | – | – | 139 | – | – | – |
| Cc1cc2ccccc2n1CCNC(=O)c1cnc2ccc(F)cc2c1O [TG7-148] | – | – | – | 174 | – | – | – |
| COc1cccc2c1C(=O)c1c(O)c3c(c(O)c1C2=O)C[C@@](O)(C(=O)CO)C[C@@H]3O[C@H]1C[C@H](N)[C@H](O)[C@H](C)O1 [doxorubicin, reference compound] | – | – | – | – | – | – | CC50 at 48 h (in vitro): 0.2 µM |
